Data: the supplement of paper PMC10307832

Experiments:
Assay in all cases: relative viability (nuclei count vs DMSO), 5 days (fraction); higher = more cells survive
Neratinib + Lapatinib = compound: CCOc1cc2ncc(C#N)c(Nc3ccc(OCc4ccccn4)c(Cl)c3)c2cc1NC(=O)/C=C/CN(C)C [Neratinib] + CS(=O)(=O)CCNCc1ccc(-c2ccc3ncnc(Nc4ccc(OCc5cccc(F)c5)c(Cl)c4)c3c2)o1 [Lapatinib] (partner 2 µM)
How it was run: (§1)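 Cells from lung cancer lines were seeded into 1536-well plates and, one day later, dosed by pin tool. Treatments were either a single drug or a fixed dose of an anchor drug with five library-drug doses (not always all listed) in √10 steps. After 5 days, nuclei were stained in a one-step fixation (final 0.05% Triton X-100, 1% formaldehyde, 1 ug/ml Hoechst) and counted on 4× images, and relative viability is the treated-to-vehicle nuclei ratio, as the median of duplicate plates.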

Neratinib + Crizotinib = compound: CCOc1cc2ncc(C#N)c(Nc3ccc(OCc4ccccn4)c(Cl)c3)c2cc1NC(=O)/C=C/CN(C)C [Neratinib] + C[C@@H](Oc1cc(-c2cnn(C3CCNCC3)c2)cnc1N)c1c(Cl)ccc(F)c1Cl [Crizotinib] (partner 1 µM)
How it was run: as §1

Neratinib + Pemetrexed = compound: CCOc1cc2ncc(C#N)c(Nc3ccc(OCc4ccccn4)c(Cl)c3)c2cc1NC(=O)/C=C/CN(C)C [Neratinib] + Nc1nc2[nH]cc(CCc3ccc(C(=O)N[C@@H](CCC(=O)O)C(=O)O)cc3)c2c(=O)[nH]1 [Pemetrexed] (partner 0.2 µM)
How it was run: as §1

Neratinib + Dasatinib = compound: CCOc1cc2ncc(C#N)c(Nc3ccc(OCc4ccccn4)c(Cl)c3)c2cc1NC(=O)/C=C/CN(C)C [Neratinib] + Cc1nc(Nc2ncc(C(=O)Nc3c(C)cccc3Cl)s2)cc(N2CCN(CCO)CC2)n1 [Dasatinib] (partner 0.075 µM)
How it was run: as §1

Row | Cell Line | relative viability (Neratinib + Lapatinib; first compound 0.01 µM) | relative viability (Neratinib + Lapatinib; first compound 0.03162 µM) | relative viability (Neratinib + Lapatinib; first compound 0.1 µM) | relative viability (Neratinib + Lapatinib; first compound 0.3162 µM) | relative viability (Neratinib + Lapatinib; first compound 1 µM) | relative viability (Neratinib + Crizotinib; first compound 0.01 µM) | relative viability (Neratinib + Crizotinib; first compound 0.03162 µM) | relative viability (Neratinib + Crizotinib; first compound 0.1 µM) | relative viability (Neratinib + Crizotinib; first compound 0.3162 µM) | relative viability (Neratinib + Crizotinib; first compound 1 µM) | relative viability (Neratinib + Pemetrexed; first compound 0.01 µM) | relative viability (Neratinib + Pemetrexed; first compound 0.03162 µM) | relative viability (Neratinib + Pemetrexed; first compound 0.1 µM) | relative viability (Neratinib + Pemetrexed; first compound 0.3162 µM) | relative viability (Neratinib + Pemetrexed; first compound 1 µM) | relative viability (Neratinib + Dasatinib; first compound 0.01 µM) | relative viability (Neratinib + Dasatinib; first compound 0.03162 µM) | relative viability (Neratinib + Dasatinib; first compound 0.1 µM) | relative viability (Neratinib + Dasatinib; first compound 0.3162 µM) | relative viability (Neratinib + Dasatinib; first compound 1 µM)
1 | HCC-44 | 1.04 | 1.15 | 0.792 | 0.963 | 1.07 | 0.821 | 0.8 | 0.727 | 0.806 | 0.851 | 0.63 | 0.686 | 0.635 | 0.648 | 0.671 | – | – | – | – | –
2 | SW 900 | – | – | – | – | – | – | – | – | – | – | 0.514 | 0.473 | 0.426 | 0.454 | 0.371 | 0.544 | 0.732 | 0.392 | 0.458 | 0.454
3 | NCI-H441 | – | – | – | – | – | 0.73 | 0.74 | 0.587 | 0.606 | 0.268 | 0.256 | 0.266 | 0.261 | 0.278 | 0.248 | 0.696 | 0.488 | 0.611 | 0.305 | 0.175
4 | ABC-1 | 1.44 | 1.15 | 1.21 | 1.05 | 0.629 | 1.47 | 0.954 | 1.06 | 0.668 | 0.537 | – | – | – | – | – | 0.638 | – | 0.593 | 0.455 | 0.349
5 | NCI-H1793 | 0.693 | 0.646 | 0.576 | 0.75 | 0.642 | – | – | – | – | – | 0.92 | 0.778 | 0.637 | 0.666 | 0.414 | 0.43 | 0.457 | 0.321 | 0.34 | 0.264
6 | NCI-H1395 | 1.02 | 1.54 | 1.11 | 1.22 | 0.784 | – | – | – | – | – | 1.01 | 0.982 | 0.862 | 0.877 | 0.614 | 0.406 | 0.388 | 0.458 | 0.413 | 0.318
7 | NCI-H1299 | 0.969 | 0.957 | 0.938 | 0.976 | 1.04 | 0.991 | 1.02 | 0.95 | 0.991 | 1.06 | – | – | – | – | – | – | – | – | – | –
8 | ChaGo-K-1 | – | – | – | – | – | 1.3 | 1.24 | 1.14 | 1.02 | 0.845 | 0.247 | 0.274 | 0.248 | 0.429 | 0.233 | 0.561 | 0.62 | 0.555 | 0.571 | 0.544
9 | NCI-H522 | – | – | – | – | – | – | – | – | – | – | 1 | 0.943 | 0.72 | 0.673 | 0.657 | 0.94 | 0.809 | 0.818 | 0.786 | 0.664
10 | A549 | 1.09 | 0.968 | 0.907 | – | 0.558 | 1 | 0.796 | 0.713 | 0.68 | 0.187 | – | – | – | – | – | – | – | – | – | –
11 | IA-LM | 0.708 | 0.822 | 0.63 | 0.914 | 0.619 | 0.981 | 0.799 | 0.681 | 0.766 | 0.536 | – | – | – | – | – | – | – | – | – | –
12 | LCLC-103H | – | – | – | – | – | 1.09 | 0.989 | 0.88 | 0.892 | 0.884 | 0.509 | 0.489 | 0.445 | 0.488 | 0.484 | 0.551 | 0.5 | 0.415 | 0.375 | 0.346
13 | Calu-6 | – | 1.27 | 0.967 | 0.95 | 0.64 | 0.905 | 0.939 | 0.737 | 0.692 | 0.422 | – | – | – | – | – | – | – | – | – | –
